Legend:
[1] = test system: Xenopus tail regeneration; details: compound in medium beginning immediately after tail amputation (stage 40-41)
[2] = test system: Sonic hedgehog (Shh), Nodal; assay: Sidedness of Shh and Nodal expression in chick embryos (in ovo culture, in situ hybridization); details: in vivo
From the text: We examined the effect of inhibiting H^+-V-ATPase activity on the expression of the early left-sided marker Sonic hedgehog (Shh). Inhibition of H^+-V-ATPase activity following treatment with concanamycin or DCCD specifically randomized the expression of Shh, as well as that of and the downstream marker Nodal. Compared to controls, in which these two markers are always left-sided, concanamycin induced aberrant sidedness of Shh expression in 67% and Nodal in 24% of embryos. Thus, as in Xenopus, H^+-V-ATPase is upstream of the known asymmetric gene cascade, and is required for normal LR patterning in chicks.
To perform a pharmacological screen on chick embryos with minimal disturbance to normal morphogenesis, we optimized a chicken in ovo culture system. A small hole was made on the top of each egg (prior to incubation), and 5 ml of light albumin was removed. […]. Eggs were securely wrapped with Scotch tape, incubated at 37.5° C. to the desired stages, then fixed for analysis of laterality markers by in situ hybridization.
Whole mount in situ hybridization (WISH) on Xenopus was performed according to standard methods. DNA used to transcribe in situ hybridization probes were XNr-1 (Lohr et al., 1998, Developmental Genetics 23: 194-202; Lowe et al., 1996, Nature 381: 158-161); cShh (Levin et al., 1995, Cell 82: 803-814); cNodal (Levin et al., 1995, Cell 82: 803-814).

Xenopus embryos = assay type: in vivo; details: treated from fertilization to stage 7; organs scored at stage 45
Dugesia japonica = assay: Planarian regeneration, anterior-posterior phenotype (anteriorizing index) under GJC inhibition; assay type: in vivo
Method: Regenerating worms were contacted with the compound at an early stage of regeneration (2 days after cutting). 1-10 μM heptanol was dissolved in the medium. […] At 7 days post-cutting, we assayed the worms for the morphology of blastemas.
We next sought to ascertain whether the anteriorizing effect was dependent on the AP (anterior-posterior) level from which the fragment originated. Worms were amputated at four levels to make five body fragments: head, pre-pharyngeal, trunk (including the pharynx), post-pharyngeal and tail fragments.
The asexual clonal strain GI of the planarian, Dugesia japonica, was used in these study. In all experiments, the worms were starved for 1 week before use.
Intact worms 1-1.5 cm long were put into heptanol (or hexanol) solution (0.0045-0.006% vigorously vortexed into spring water) immediately prior to amputation to equilibrate the worms with the drug solution. The worms were amputated at four levels to generate the head, pre-pharyngeal, trunk (or “pharyngeal”), post-pharyngeal, and tail fragments. Worm fragments were incubated at 22° C. for 2 days. The heptanol solution was exchanged for fresh solution every day. The worms were then washed with water twice and incubated in worm water for 14-20 days to monitor the phenotypes.
We developed a quantitative scheme allowing comparison of degree of anteriorization among groups of worms. Each worm was scored on the following scale by observing the posterior blastema: 0 points—normal (a normal worm with a fully-patterned tail), 1 point—weak anteriorization of posterior blastema (missing tail or bipolar pharynx), 2 points—stronger anteriorization of posterior blastema (incomplete ectopic head with eye structures), or 3 points—complete anteriorization of posterior blastema (bipolar head, where the ectopic head has complete development with 2 normal eyes). For each group of worms, we calculated an average score that is the sum of all scores for the worms divided by the total number of worms. For convenience, the index was scaled from 0 to 100 (final index=average score*100/3). On this scale, a group of worms that were all normal would score 0, while a group of worms all of which were fully double-head would score 100. This scheme was focused on ascertaining the extent of anteriorization as judged by external morphology.

Row | Compound | effect on rate or extent of tail regeneration [1] | also measured
1 | O=C(O)c1c2ccccc2cc2ccccc12 [9-anthracene-carboxylic acid] | no effect | 
2 | CC1(C)[C@@H](O)CC[C@]2(C)[C@H]3C(=O)C=C4[C@@H]5C[C@@](C)(C(=O)O)CC[C@]5(C)CC[C@@]4(C)[C@]3(C)CC[C@@H]12 [18-β-glycyrrhetinic acid] | no effect | 
3 | [Ba+2].[Cl-].[Cl-] [BaCl] | absence of regeneration | 
4 | C(=NC1CCCCC1)=NC1CCCCC1 [DCCD] |  | expression of Shh and Nodal (sidedness) [2]: randomized
5 | CCN(c1nc(N)c(C(=O)NC(=N)N)nc1Cl)C(C)C [EIPA, Ethylisopropyl amiloride] | no effect | 
6 | O=C1CCC(N2Cc3ccccc3C2=O)C(=O)N1 (centres unmarked) [EM12] | no effect | 
7 | Cc1nc2c(OCc3ccccc3)cccn2c1CC#N [SCH28080] | no effect | 
8 | COc1ccc2c(c1OC)CN1CCc3cc4c(cc3C1C2)OCO4 (centres unmarked) [THB, Tetrahydroberberine] | no effect | 
9 | N=C(N)NC(=O)c1nc(Cl)c(N)nc1N [amiloride] | no effect | 
10 | CO/C1=C\C(C)=C\[C@@H](C)[C@@H](O)[C@@H](C)C/C(C)=C/C=C/[C@H](OC)[C@@H]([C@@H](C)[C@@H](O)[C@H](C)[C@@]2(O)C[C@@H](O)[C@H](C)[C@@H](C(C)C)O2)OC1=O [bafilomycin] |  | heterotaxia, % of the embryos (Xenopus embryos): 36%
11 | CC1=NS(=O)(=O)c2cc(Cl)ccc2N1 [diazoxide] | no effect | 
12 | COc1ccc(Cl)cc1C(=O)NCCc1ccc(S(=O)(=O)NC(=O)NC2CCCCC2)cc1 [glibenclamide] | no effect | 
13 | CCCCCCCO [heptanol] | no effect | toxicity to the worms (Dugesia japonica; 1-10 μM): not toxic; trunk fragments with anteriorization of both blastemas (Dugesia japonica; 1-10 μM in the medium, scored 7 days post-cutting): 43%; complete bipolar heads (Dugesia japonica; 1-10 μM, trunk fragments): 16%
14 | CCCCCCO [hexanol] |  | strong anteriorization of the posterior blastema (Dugesia japonica; in vivo): never induced strong anteriorization; tail regeneration (Dugesia japonica; in vivo): did inhibit tail regeneration
15 | C[C@@H]1O[C@@H](O[C@H]2C[C@@H](O)[C@]3(CO)[C@H]4[C@H](O)C[C@]5(C)[C@@H](C6=CC(=O)OC6)CC[C@]5(O)[C@@H]4CC[C@]3(O)C2)[C@H](O)[C@H](O)[C@H]1O [ouabain] | no effect | 
16 | CCOC(=O)c1cccc(N)c1 [tricaine] | absence of regeneration | 
